Earlier results in patent US20240286999A1, “AZABICYCLO[3.1.0]HEXANE COMPOUND” (OTSUKA PHARMACEUTICAL CO., LTD., priority 2021, published 2024).

How the values were obtained:
[1] = tested on: norepinephrine reuptake (NE); details: ranking among NE, DA and 5-HT reuptake
dopamine reuptake (DA) = details: relative to NE reuptake
[2] = tested on: serotonin reuptake (5-HT); details: relative to NE reuptake

c1ccc2cc([C@]34CNC[C@H]3C4)ccc2c1 [(1R,5S)-1-(naphthalen-2-yl)-3-azabicyclo[3.1.0]hexane]
effectiveness against norepinephrine reuptake (NE) [1]: most effective
effectiveness against dopamine reuptake (DA) relative to norepinephrine reuptake (dopamine reuptake (DA)): one-sixth as effective
effectiveness against serotonin reuptake (5-HT) relative to norepinephrine reuptake [2]: one-fourteenth as effective
